Measurements as given in the kinase profiling compilation of Christmann-Franck et al. (2016).

What was measured:
Test in all cases: radiometric filter-binding kinase assay, Kinase HotSpot
Settings in all cases: compound 0.5 µM; ATP 10 µM
CHUK (human) = CHUK (human) (UniProt O15111)
PTK2 (human) = PTK2 (human) (UniProt Q05397)
GRK6 (human) = GRK6 (human) (UniProt P43250)
PAK6 (human) = PAK6 (human) (UniProt Q9NQU5)
EGFR (human) = EGFR (human) (UniProt P00533)
IRAK1 (human) = IRAK1 (human) (UniProt P51617)
SRPK3 (human) = SRPK3 (human) (UniProt Q9UPE1)
NLK (human) = NLK (human) (UniProt Q9UBE8)
NEK1 (human) = NEK1 (human) (UniProt Q96PY6)
MERTK (human) = MERTK (human) (UniProt Q12866)
CAMKK2 (human) = CAMKK2 (human) (UniProt Q96RR4)
STK4 (human) = STK4 (human) (UniProt Q13043)
STK25 (human) = STK25 (human) (UniProt O00506)
Chain of STK25 (human) (O00506 whole entry, looked up): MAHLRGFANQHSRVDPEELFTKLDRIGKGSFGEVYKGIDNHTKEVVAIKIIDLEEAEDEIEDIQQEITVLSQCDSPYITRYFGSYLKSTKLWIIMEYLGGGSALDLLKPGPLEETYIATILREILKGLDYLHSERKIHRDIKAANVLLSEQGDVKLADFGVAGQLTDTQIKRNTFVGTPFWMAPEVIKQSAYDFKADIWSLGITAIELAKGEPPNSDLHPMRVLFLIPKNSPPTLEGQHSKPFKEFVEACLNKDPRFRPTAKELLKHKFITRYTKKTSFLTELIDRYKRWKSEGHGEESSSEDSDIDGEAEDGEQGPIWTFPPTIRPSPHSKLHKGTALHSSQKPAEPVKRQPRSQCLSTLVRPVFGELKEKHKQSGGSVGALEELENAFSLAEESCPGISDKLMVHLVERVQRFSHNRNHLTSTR

MAP3K2 (human) = MAP3K2 (human) (UniProt Q9Y2U5)
PAK3 (human) = PAK3 (human) (UniProt O75914)
PRKD2 (human) = PRKD2 (human) (UniProt Q9BZL6)
Chain of PRKD2 (human) (Q9BZL6 whole entry, looked up): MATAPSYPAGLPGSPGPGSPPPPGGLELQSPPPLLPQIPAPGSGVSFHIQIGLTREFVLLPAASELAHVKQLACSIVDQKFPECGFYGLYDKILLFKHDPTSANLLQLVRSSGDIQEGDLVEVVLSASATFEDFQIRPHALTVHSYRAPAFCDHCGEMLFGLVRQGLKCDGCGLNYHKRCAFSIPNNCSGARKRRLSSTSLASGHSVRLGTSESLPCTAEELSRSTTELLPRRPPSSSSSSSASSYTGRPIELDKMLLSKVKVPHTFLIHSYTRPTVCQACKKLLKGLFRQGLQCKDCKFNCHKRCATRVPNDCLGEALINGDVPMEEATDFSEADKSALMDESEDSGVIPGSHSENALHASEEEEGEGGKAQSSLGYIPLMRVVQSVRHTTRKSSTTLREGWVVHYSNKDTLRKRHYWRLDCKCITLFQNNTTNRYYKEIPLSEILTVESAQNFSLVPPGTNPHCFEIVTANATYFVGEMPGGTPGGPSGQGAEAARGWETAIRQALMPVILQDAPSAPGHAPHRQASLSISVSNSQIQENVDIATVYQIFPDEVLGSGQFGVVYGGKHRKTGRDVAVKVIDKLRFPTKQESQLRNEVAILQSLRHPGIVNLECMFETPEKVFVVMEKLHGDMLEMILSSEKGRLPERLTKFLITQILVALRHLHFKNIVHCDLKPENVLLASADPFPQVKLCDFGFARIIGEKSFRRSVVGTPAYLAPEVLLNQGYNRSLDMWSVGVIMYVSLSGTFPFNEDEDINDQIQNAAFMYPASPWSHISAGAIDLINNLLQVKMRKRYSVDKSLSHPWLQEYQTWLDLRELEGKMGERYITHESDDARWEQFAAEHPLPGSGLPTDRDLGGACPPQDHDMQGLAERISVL

CSNK1G1 (human) = CSNK1G1 (human) (UniProt Q9HCP0)
RPS6KA4 KD2 (human) = RPS6KA4 KD2 (human) (UniProt O75676)
TSSK1B (human) = TSSK1B (human) (UniProt Q9BXA7)
DAPK3 (human) = DAPK3 (human) (UniProt O43293)
MAPK13 (human) = MAPK13 (human) (UniProt O15264)
Chain of MAPK13 (human) (O15264 whole entry, looked up): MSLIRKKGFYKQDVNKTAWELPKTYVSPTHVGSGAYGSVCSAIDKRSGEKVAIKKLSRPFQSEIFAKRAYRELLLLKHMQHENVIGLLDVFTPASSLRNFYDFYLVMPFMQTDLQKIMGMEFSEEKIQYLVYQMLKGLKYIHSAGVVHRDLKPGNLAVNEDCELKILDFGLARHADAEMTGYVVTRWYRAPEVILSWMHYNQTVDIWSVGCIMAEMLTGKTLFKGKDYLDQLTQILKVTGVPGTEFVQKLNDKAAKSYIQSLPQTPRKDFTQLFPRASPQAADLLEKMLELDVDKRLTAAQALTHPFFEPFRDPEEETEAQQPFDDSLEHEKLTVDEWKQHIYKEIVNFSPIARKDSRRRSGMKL

SRPK1 (human) = SRPK1 (human) (UniProt Q96SB4)
NTRK1 (human) = NTRK1 (human) (UniProt P04629)
EPHB2 (human) = EPHB2 (human) (UniProt P29323)
CSNK1E (human) = CSNK1E (human) (UniProt P49674)
Chain of CSNK1E (human) (P49674 whole entry, looked up): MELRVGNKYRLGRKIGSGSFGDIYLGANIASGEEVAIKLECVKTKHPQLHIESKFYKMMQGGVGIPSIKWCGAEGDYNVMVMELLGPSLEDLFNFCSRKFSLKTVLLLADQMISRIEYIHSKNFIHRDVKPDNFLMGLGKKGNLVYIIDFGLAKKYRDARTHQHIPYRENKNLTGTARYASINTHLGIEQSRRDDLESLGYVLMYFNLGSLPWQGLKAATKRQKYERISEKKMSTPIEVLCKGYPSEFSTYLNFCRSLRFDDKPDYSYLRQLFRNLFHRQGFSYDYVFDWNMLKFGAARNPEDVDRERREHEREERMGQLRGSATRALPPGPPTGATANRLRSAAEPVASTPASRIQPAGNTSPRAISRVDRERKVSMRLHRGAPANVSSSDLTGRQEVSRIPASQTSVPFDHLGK

MYLK2 (human) = MYLK2 (human) (UniProt Q9H1R3)
PRKCG (human) = PRKCG (human) (UniProt P05129)
MAP3K7 TAB1 (human) = MAP3K7 TAB1 (human) (UniProt O43318+Q15750)
[1] = system: MAP2K6 (human), P52564 [S207E/T211E]
INSRR (human) = INSRR (human) (UniProt P14616)
PLK3 (human) = PLK3 (human) (UniProt Q9H4B4)
GSK3A (human) = GSK3A (human) (UniProt P49840)
STK33 (human) = STK33 (human) (UniProt Q9BYT3)
FER (human) = FER (human) (UniProt P16591)
EPHA2 (human) = EPHA2 (human) (UniProt P29317)
RPS6KA6 KD1 KD2 (human) = RPS6KA6 KD1 KD2 (human) (UniProt Q9UK32)
MLTK (human) = MLTK (human) (UniProt Q9NYL2)
ACVRL1 (human) = ACVRL1 (human) (UniProt P37023)
ERBB2 (human) = ERBB2 (human) (UniProt P04626)
PDGFRB (human) = PDGFRB (human) (UniProt P09619)
PTK2B (human) = PTK2B (human) (UniProt Q14289)
Chain of PTK2B (human) (Q14289 whole entry, looked up): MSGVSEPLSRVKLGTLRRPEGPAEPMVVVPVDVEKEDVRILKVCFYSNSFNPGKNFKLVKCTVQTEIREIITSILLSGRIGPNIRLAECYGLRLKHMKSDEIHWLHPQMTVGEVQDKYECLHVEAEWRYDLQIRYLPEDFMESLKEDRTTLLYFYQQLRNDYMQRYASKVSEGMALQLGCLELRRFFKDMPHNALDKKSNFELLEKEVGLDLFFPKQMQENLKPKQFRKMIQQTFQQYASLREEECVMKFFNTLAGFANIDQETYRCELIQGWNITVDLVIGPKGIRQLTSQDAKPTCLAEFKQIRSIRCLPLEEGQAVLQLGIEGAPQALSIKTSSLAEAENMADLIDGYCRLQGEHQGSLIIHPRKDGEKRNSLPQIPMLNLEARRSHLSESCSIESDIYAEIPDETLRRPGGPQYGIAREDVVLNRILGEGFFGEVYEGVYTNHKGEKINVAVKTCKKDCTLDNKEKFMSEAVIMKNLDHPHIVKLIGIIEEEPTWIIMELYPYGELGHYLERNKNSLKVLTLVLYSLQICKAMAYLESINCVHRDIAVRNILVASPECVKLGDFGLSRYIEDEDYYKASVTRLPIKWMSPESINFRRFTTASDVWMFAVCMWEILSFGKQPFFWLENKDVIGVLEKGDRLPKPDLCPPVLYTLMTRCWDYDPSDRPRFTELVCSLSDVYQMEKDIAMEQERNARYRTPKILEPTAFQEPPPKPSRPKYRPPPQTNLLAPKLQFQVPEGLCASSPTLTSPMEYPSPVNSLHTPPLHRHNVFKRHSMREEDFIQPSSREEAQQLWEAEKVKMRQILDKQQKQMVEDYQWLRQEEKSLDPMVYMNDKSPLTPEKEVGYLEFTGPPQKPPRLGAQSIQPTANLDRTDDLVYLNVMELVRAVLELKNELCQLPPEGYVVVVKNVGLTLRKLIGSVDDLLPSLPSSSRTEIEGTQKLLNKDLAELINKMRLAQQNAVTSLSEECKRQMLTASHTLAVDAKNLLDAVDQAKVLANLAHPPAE

CAMK2B (human) = CAMK2B (human) (UniProt Q13554)

Chain of EGFR (human) (P00533 whole entry, looked up): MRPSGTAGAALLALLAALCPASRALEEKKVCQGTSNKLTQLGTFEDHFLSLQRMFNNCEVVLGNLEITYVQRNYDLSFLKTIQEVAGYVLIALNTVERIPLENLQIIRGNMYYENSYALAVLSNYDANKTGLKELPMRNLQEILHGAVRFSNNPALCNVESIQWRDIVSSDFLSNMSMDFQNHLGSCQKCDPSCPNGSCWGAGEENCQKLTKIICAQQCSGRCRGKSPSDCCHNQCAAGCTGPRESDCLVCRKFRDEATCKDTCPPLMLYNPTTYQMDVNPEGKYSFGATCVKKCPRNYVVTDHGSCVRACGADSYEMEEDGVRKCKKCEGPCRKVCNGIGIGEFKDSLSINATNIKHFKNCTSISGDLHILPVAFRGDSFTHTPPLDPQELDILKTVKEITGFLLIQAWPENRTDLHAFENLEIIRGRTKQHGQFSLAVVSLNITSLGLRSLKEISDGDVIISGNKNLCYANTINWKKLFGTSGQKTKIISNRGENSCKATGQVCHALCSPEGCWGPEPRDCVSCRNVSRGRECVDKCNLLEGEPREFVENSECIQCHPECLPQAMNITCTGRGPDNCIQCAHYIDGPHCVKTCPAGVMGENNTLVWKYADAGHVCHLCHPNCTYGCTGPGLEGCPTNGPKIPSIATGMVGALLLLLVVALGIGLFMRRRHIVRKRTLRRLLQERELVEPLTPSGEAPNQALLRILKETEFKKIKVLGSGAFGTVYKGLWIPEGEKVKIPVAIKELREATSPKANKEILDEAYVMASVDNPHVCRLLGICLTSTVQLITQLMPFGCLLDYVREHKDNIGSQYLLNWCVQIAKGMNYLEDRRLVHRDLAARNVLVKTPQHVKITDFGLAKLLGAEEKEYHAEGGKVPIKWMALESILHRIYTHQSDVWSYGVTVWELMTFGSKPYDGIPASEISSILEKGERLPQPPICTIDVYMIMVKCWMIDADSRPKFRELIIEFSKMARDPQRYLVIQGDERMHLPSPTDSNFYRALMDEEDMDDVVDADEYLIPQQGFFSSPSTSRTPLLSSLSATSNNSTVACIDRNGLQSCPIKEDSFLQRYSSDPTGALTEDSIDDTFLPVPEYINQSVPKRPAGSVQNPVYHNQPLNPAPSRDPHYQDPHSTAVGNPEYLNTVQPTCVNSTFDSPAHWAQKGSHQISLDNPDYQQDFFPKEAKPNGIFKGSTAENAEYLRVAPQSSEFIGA
Chain of GRK6 (human) (P43250 whole entry, looked up): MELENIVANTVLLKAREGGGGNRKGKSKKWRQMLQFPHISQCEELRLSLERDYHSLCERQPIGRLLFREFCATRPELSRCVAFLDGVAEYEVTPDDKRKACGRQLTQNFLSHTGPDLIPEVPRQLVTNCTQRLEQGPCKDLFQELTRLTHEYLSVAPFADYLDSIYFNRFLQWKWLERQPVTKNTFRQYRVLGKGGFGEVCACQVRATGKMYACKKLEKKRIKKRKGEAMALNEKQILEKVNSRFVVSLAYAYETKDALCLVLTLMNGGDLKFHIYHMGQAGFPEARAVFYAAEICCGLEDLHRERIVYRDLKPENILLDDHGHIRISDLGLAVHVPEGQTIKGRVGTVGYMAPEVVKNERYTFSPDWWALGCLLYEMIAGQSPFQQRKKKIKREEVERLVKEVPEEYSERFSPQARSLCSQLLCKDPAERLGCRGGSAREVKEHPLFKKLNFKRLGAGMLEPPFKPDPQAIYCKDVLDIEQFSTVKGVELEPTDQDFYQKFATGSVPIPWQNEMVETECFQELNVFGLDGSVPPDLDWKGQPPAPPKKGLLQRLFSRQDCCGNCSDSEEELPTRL

Compound: COc1ccc2c(c1)/C(=C/c1cnc[nH]1)C(O)=N2
- residual activity (CHUK (human)): 110%
- residual activity (PTK2 (human)): 87.9%
- residual activity (GRK6 (human)): 85.2%
- residual activity (PAK6 (human)): 101%
- residual activity (EGFR (human)): 99.4%
- residual activity (IRAK1 (human)): 101%
- residual activity (SRPK3 (human)): 96.2%
- residual activity (NLK (human)): 69.7%
- residual activity (NEK1 (human)): 84.4%
- residual activity (MERTK (human)): 84.7%
- residual activity (CAMKK2 (human)): 89.5%
- residual activity (STK4 (human)): 5.67%
- residual activity (STK25 (human)): 86.2%
- residual activity (MAP3K2 (human)): 89.6%
- residual activity (PAK3 (human)): 99.2%
- residual activity (PRKD2 (human)): 60.2%
- residual activity (CSNK1G1 (human)): 106%
- residual activity (RPS6KA4 KD2 (human)): 76.9%
- residual activity (TSSK1B (human)): 101%
- residual activity (DAPK3 (human)): 101%
- residual activity (MAPK13 (human)): 102%
- residual activity (SRPK1 (human)): 98%
- residual activity (NTRK1 (human)): 61.4%
- residual activity (EPHB2 (human)): 100%
- residual activity (CSNK1E (human)): 80%
- residual activity (MYLK2 (human)): 21%
- residual activity (PRKCG (human)): 95.2%
- residual activity (MAP3K7 TAB1 (human)): 63.7%
- residual activity [1]: 90.1%
- residual activity (INSRR (human)): 97.8%
- residual activity (PLK3 (human)): 93%
- residual activity (GSK3A (human)): 26.2%
- residual activity (STK33 (human)): 74.7%
- residual activity (FER (human)): 88.4%
- residual activity (EPHA2 (human)): 98.4%
- residual activity (RPS6KA6 KD1 KD2 (human)): 48.8%
- residual activity (MLTK (human)): 91.4%
- residual activity (ACVRL1 (human)): 98.7%
- residual activity (ERBB2 (human)): 101%

Compound: COc1cc(Nc2c(C#N)cnc3cc(OCCCN4CCN(C)CC4)c(OC)cc23)c(Cl)cc1Cl
- residual activity (CHUK (human)): 98.1%
- residual activity (PDGFRB (human)): 74.8%
- residual activity (PTK2 (human)): 96%
- residual activity (GRK6 (human)): 99.5%
- residual activity (PAK6 (human)): 105%
- residual activity (EGFR (human)): 3.84%
- residual activity (IRAK1 (human)): 91.3%
- residual activity (SRPK3 (human)): 106%
- residual activity (NLK (human)): 101%
- residual activity (PTK2B (human)): 32.6%
- residual activity (NEK1 (human)): 15.2%
- residual activity (MERTK (human)): 28.9%
- residual activity (CAMKK2 (human)): 85.1%
- residual activity (STK4 (human)): 7.4%
- residual activity (STK25 (human)): 10.1%
- residual activity (MAP3K2 (human)): 23.5%
- residual activity (PRKD2 (human)): 35.5%
- residual activity (CSNK1G1 (human)): 95.7%
- residual activity (RPS6KA4 KD2 (human)): 101%
- residual activity (TSSK1B (human)): 79.2%
- residual activity (CAMK2B (human)): 86.2%
- residual activity (DAPK3 (human)): 107%
- residual activity (MAPK13 (human)): 91.2%
- residual activity (SRPK1 (human)): 98.5%
- residual activity (NTRK1 (human)): 106%
- residual activity (EPHB2 (human)): 17.4%
- residual activity (CSNK1E (human)): 11.4%
- residual activity (MYLK2 (human)): 32.1%
- residual activity (PRKCG (human)): 93.6%
- residual activity (MAP3K7 TAB1 (human)): 28.3%
- residual activity [1]: 93.4%
- residual activity (INSRR (human)): 36.9%
- residual activity (PLK3 (human)): 98.5%
- residual activity (GSK3A (human)): 103%
- residual activity (STK33 (human)): 63.5%
- residual activity (FER (human)): 54.6%
- residual activity (RPS6KA6 KD1 KD2 (human)): 62%
- residual activity (ACVRL1 (human)): 67.6%
- residual activity (ERBB2 (human)): 32.9%

Compound: Cc1cncc2cccc(S(=O)(=O)N3CCCN(C(=O)CN)C[C@H]3C)c12
- residual activity (CHUK (human)): 105%
- residual activity (PDGFRB (human)): 104%
- residual activity (PTK2 (human)): 78%
- residual activity (GRK6 (human)): 85.5%
- residual activity (PAK6 (human)): 108%
- residual activity (EGFR (human)): 98.7%
- residual activity (IRAK1 (human)): 135%
- residual activity (SRPK3 (human)): 99.9%
- residual activity (NLK (human)): 99.6%
- residual activity (PTK2B (human)): 92.5%
- residual activity (NEK1 (human)): 100%
- residual activity (MERTK (human)): 95.4%
- residual activity (CAMKK2 (human)): 115%
- residual activity (STK4 (human)): 95.4%
- residual activity (STK25 (human)): 119%
- residual activity (MAP3K2 (human)): 92.1%
- residual activity (PAK3 (human)): 105%
- residual activity (PRKD2 (human)): 96%
- residual activity (CSNK1G1 (human)): 92.4%
- residual activity (RPS6KA4 KD2 (human)): 82.3%
- residual activity (TSSK1B (human)): 103%
- residual activity (CAMK2B (human)): 92.4%
- residual activity (DAPK3 (human)): 90.4%
- residual activity (MAPK13 (human)): 119%
- residual activity (SRPK1 (human)): 103%
- residual activity (NTRK1 (human)): 100%
- residual activity (CSNK1E (human)): 100%
- residual activity (MYLK2 (human)): 101%
- residual activity (PRKCG (human)): 101%
- residual activity (MAP3K7 TAB1 (human)): 94.9%
- residual activity [1]: 107%
- residual activity (INSRR (human)): 103%
- residual activity (PLK3 (human)): 98.4%
- residual activity (GSK3A (human)): 99.6%
- residual activity (STK33 (human)): 100%
- residual activity (FER (human)): 66%
- residual activity (RPS6KA6 KD1 KD2 (human)): 105%
- residual activity (MLTK (human)): 108%
- residual activity (ACVRL1 (human)): 99.2%
- residual activity (ERBB2 (human)): 99.7%

Compound: Fc1ccc(-c2nc3n(c2-c2ccncc2)CCS3)cc1
- residual activity (CHUK (human)): 104%
- residual activity (PDGFRB (human)): 107%
- residual activity (PTK2 (human)): 102%
- residual activity (GRK6 (human)): 103%
- residual activity (PAK6 (human)): 106%
- residual activity (EGFR (human)): 90.7%
- residual activity (IRAK1 (human)): 125%
- residual activity (SRPK3 (human)): 98.5%
- residual activity (NLK (human)): 41.1%
- residual activity (PTK2B (human)): 106%
- residual activity (NEK1 (human)): 103%
- residual activity (MERTK (human)): 88.7%
- residual activity (CAMKK2 (human)): 99.9%
- residual activity (STK25 (human)): 104%
- residual activity (MAP3K2 (human)): 99.8%
- residual activity (PAK3 (human)): 104%
- residual activity (PRKD2 (human)): 94.7%
- residual activity (CSNK1G1 (human)): 86.6%
- residual activity (RPS6KA4 KD2 (human)): 88.8%
- residual activity (TSSK1B (human)): 119%
- residual activity (CAMK2B (human)): 90%
- residual activity (DAPK3 (human)): 100%
- residual activity (MAPK13 (human)): 111%
- residual activity (SRPK1 (human)): 100%
- residual activity (NTRK1 (human)): 99.5%
- residual activity (EPHB2 (human)): 99.3%
- residual activity (CSNK1E (human)): 20%
- residual activity (MYLK2 (human)): 101%
- residual activity (MAP3K7 TAB1 (human)): 92.2%
- residual activity [1]: 104%
- residual activity (INSRR (human)): 102%
- residual activity (PLK3 (human)): 97.8%
- residual activity (GSK3A (human)): 116%
- residual activity (STK33 (human)): 96.5%
- residual activity (FER (human)): 86.4%
- residual activity (EPHA2 (human)): 107%
- residual activity (RPS6KA6 KD1 KD2 (human)): 115%
- residual activity (MLTK (human)): 100%
- residual activity (ACVRL1 (human)): 97.9%
- residual activity (ERBB2 (human)): 105%

Compound: N#C/C(=C\c1ccc(O)c(O)c1)C(=O)NCc1ccccc1
- residual activity (CHUK (human)): 103%
- residual activity (PDGFRB (human)): 100%
- residual activity (PTK2 (human)): 96.9%
- residual activity (GRK6 (human)): 101%
- residual activity (PAK6 (human)): 99.4%
- residual activity (EGFR (human)): 72.4%
- residual activity (IRAK1 (human)): 154%
- residual activity (SRPK3 (human)): 93.9%
- residual activity (NLK (human)): 110%
- residual activity (PTK2B (human)): 92.6%
- residual activity (NEK1 (human)): 97.3%
- residual activity (MERTK (human)): 89%
- residual activity (CAMKK2 (human)): 97.4%
- residual activity (STK4 (human)): 95.9%
- residual activity (STK25 (human)): 101%
- residual activity (MAP3K2 (human)): 99.8%
- residual activity (PAK3 (human)): 101%
- residual activity (PRKD2 (human)): 101%
- residual activity (CSNK1G1 (human)): 102%
- residual activity (RPS6KA4 KD2 (human)): 94.2%
- residual activity (TSSK1B (human)): 90.2%
- residual activity (CAMK2B (human)): 102%
- residual activity (DAPK3 (human)): 86.5%
- residual activity (MAPK13 (human)): 101%
- residual activity (SRPK1 (human)): 104%
- residual activity (NTRK1 (human)): 98.4%
- residual activity (EPHB2 (human)): 99.7%
- residual activity (CSNK1E (human)): 86.3%
- residual activity (MYLK2 (human)): 97.9%
- residual activity (PRKCG (human)): 97.2%
- residual activity (MAP3K7 TAB1 (human)): 98.1%
- residual activity [1]: 127%
- residual activity (INSRR (human)): 96.3%
- residual activity (PLK3 (human)): 96.1%
- residual activity (GSK3A (human)): 96.5%
- residual activity (STK33 (human)): 94.9%
- residual activity (FER (human)): 86.2%
- residual activity (EPHA2 (human)): 105%
- residual activity (RPS6KA6 KD1 KD2 (human)): 108%
- residual activity (ACVRL1 (human)): 106%
- residual activity (ERBB2 (human)): 97.6%
